Species on record: Rattus norvegicus
Experiment: Open TG-GATES - Regimen: Daily Repeat
Type: toxicity, organism-based, Sprague-Dawley
Parameters: regimen Daily Repeat, gender Male, age 6 weeks
Settings: in vivo, po, 200 mg/kg, route gavage, dose level Middle; for APTT / Bas / Eos / Fbg / Hb / Ht / Lym / MCH / MCHC / MCV / Mono / Neu / PT / Plat / RBC / Ret / WBC: tissue Blood
[1] = 72 h, tissue Kidney, time 3 day
[2] = 72 h, tissue Plasma, time 3 day

Structure (SMILES): C[C@](N)(Cc1ccc(O)c(O)c1)C(=O)O [METHYLDOPA]
- TERMINAL_BW (72 h, time 3 day): 196.2 g
- APTT (72 h, time 3 day): 15.9 s
- Bas (72 h, time 3 day): 0%
- Eos (72 h, time 3 day): 0.8%
- Fbg (72 h, time 3 day): 292.8 mg/dL
- Hb (72 h, time 3 day): 13.8 g/dL
- Ht (72 h, time 3 day): 40.6%
- Lym (72 h, time 3 day): 79.4%
- MCH (72 h, time 3 day): 22.1 pg
- MCHC (72 h, time 3 day): 34%
- MCV (72 h, time 3 day): 65 fL
- Mono (72 h, time 3 day): 2.6%
- Neu (72 h, time 3 day): 16.4%
- PT (72 h, time 3 day): 12.7 s
- Plat (72 h, time 3 day): 107.2 x10_4/uL
- RBC (72 h, time 3 day): 626 x10_4/ul
- Ret (72 h, time 3 day): 7.2%
- WBC (72 h, time 3 day): 59.1 x10_2/uL
- KIDNEY_L [1]: 0.9 g
- KIDNEY_R [1]: 0.9 g
- KIDNEY_TOTAL [1]: 1.9 g
- LIVER (72 h, tissue Liver, time 3 day): 8.5 g
- A/G [2]: 0.9
- ALP [2]: 1722.4 IU/L
- ALT [2]: 53.4 IU/L
- AST [2]: 73 IU/L
- BUN [2]: 16.6 mg/dL
- CRE [2]: 0.2 mg/dL
- Ca [2]: 11.2 mg/dL
- Cl [2]: 105.8 meq/L
- DBIL [2]: 0.008 mg/dL
- GLC [2]: 174 mg/dL
- IP [2]: 8.4 mg/dL
- K [2]: 4.5 meq/L
- LDH [2]: 71.4 IU/L
- Na [2]: 145.8 meq/L
- PL [2]: 144 mg/dL
- RALB [2]: 2.7 g/dL
- TBIL [2]: 0.062 mg/dL
- TC [2]: 97 mg/dL
- TG [2]: 34 mg/dL
- TP [2]: 5.8 g/dL
- gamma-GTP [2]: 1 IU/L
- TERMINAL_BW ([…], time 7 day): 218.2 g
- TERMINAL_BW ([…], time 14 day): 271 g
- TERMINAL_BW ([…], time 28 day): 346.4 g
- APTT ([…], time 7 day): 17.4 s
- Bas ([…], time 7 day): 0%
- Eos ([…], time 7 day): 1%
- Fbg ([…], time 7 day): 269.4 mg/dL
- Hb ([…], time 7 day): 14.1 g/dL
- Ht ([…], time 7 day): 40.6%
- Lym ([…], time 7 day): 78.8%
- MCH ([…], time 7 day): 21.5 pg
- MCHC ([…], time 7 day): 34.7%
- MCV ([…], time 7 day): 61.9 fL
- Mono ([…], time 7 day): 3.6%
- Neu ([…], time 7 day): 16.2%
- PT ([…], time 7 day): 12.2 s
- Plat ([…], time 7 day): 122.9 x10_4/uL
- RBC ([…], time 7 day): 656.4 x10_4/ul
- Ret ([…], time 7 day): 4.5%
- WBC ([…], time 7 day): 71.2 x10_2/uL
- APTT ([…], time 14 day): 16.1 s
- Bas ([…], time 14 day): 0%
- Eos ([…], time 14 day): 1%
- Fbg ([…], time 14 day): 278.2 mg/dL
- Hb ([…], time 14 day): 13.8 g/dL
- Ht ([…], time 14 day): 39.5%
- Lym ([…], time 14 day): 80.6%
- MCH ([…], time 14 day): 20.9 pg
- MCHC ([…], time 14 day): 34.9%
- MCV ([…], time 14 day): 59.9 fL
- Mono ([…], time 14 day): 1.8%
- Neu ([…], time 14 day): 16.2%
- PT ([…], time 14 day): 14.2 s
- Plat ([…], time 14 day): 111.8 x10_4/uL
- RBC ([…], time 14 day): 659.4 x10_4/ul
- Ret ([…], time 14 day): 4.9%
- WBC ([…], time 14 day): 82.5 x10_2/uL
- APTT ([…], time 28 day): 17.8 s
- Bas ([…], time 28 day): 0%
- Eos ([…], time 28 day): 1.2%
- Fbg ([…], time 28 day): 280 mg/dL
- Hb ([…], time 28 day): 15.1 g/dL
- Ht ([…], time 28 day): 43%

— ChEMBL document CHEMBL3885861, “Open TG-GATES”
